Assay results published in patent US10130647B2, “Use of ginsenoside M1 for preventing or treating silicosis” (WELLHEAD […]., priority 2015, dated 2018).

Legend:
[1] = system: Male C57BL/6 mice; test: Silica crystal-induced silicosis in mice, BALF analysis; assay type: in vivo, mouse; details: 60 mg/kg oral gavage daily day 0, 1, 2
Protocol: In FIG. 9-12, the animal experiments were conducted in accordance with the guidelines of the National Institutes of Health and approved by the Institutional Animal Care and Use Committee of National Ilan University. Male C57BL/6 mice were purchased from the National Laboratory Animal Center (Taipei, Taiwan). The animals were provided a chow diet and water ad libitum under conditions of 22-24° C., 40-70% relative humidity, and a 12 h light-dark cycle. Ginsenoside M1 (60 mg/kg body weight) was oral administered daily by gavage at day 0, 1 and 2. Silicosis in mice was induced by intratracheally exposed to 40 μl aqueous suspensions of 200 μg of silica crystals in PBS daily at day 0, 1 and 2 (n=6). Each day, mice exposed to silica crystals 4 h after Ginsenoside M1 administration. Control mice received PBS. After 4 h of the last silica crystals exposure, all mice were sacrificed using neck breaking, and a bronchoalveolar lavage was carried out by repeatedly instillating and withdrawing 1 ml of 1% BSA/PBS solution three consecutive times. The levels of IL-1β and IL-6 in the bronchoalveolar lavage fluid (BALF) were measured by ELISA. The total cell number in the BALF was counted by a hematocytometer and protein concentration in the BALF was determined by protein assay dye.
(§1) For ELISA assay, 50 μl of biotinylated antibody reagent and 50 μl of culture medium were added to an anti-IL-1β, TNF-α or IL-6 precoated stripwell plate, and incubated at room temperature for 2 h. After washing the plate three times with washing buffer, 100 μl of diluted streptavidin-HRP (horseradish peroxidase) concentrate was added to each well and incubated at room temperature for 30 min. The washing process was repeated; then 100 μl of a premixed tetramethylbenzidine substrate solution was added to each well and developed at room temperature in the dark for 30 min Following the addition of 100 μl of provided stop solution to each well to stop the reaction, the absorbance of the plate was measured by a microplate reader at a 450 nm wavelength.

[2] = system: human THP-1 macrophages; test: Silica crystal-induced cytokine production in THP-1 macrophages, Ginsenoside M1 added before LPS (ELISA); assay type: cell-based; details: M1 30 min, then 1 μg/ml LPS 5 h, then 200 μg/ml silica crystal 24 h
Protocol: The levels of IL-1β in the culture medium were measured by ELISA. ** indicates a significant difference at the level of p<0.01 compared to silica crystal alone.
The levels of TNF-α in the culture medium were measured by ELISA. ** and *** indicates a significant difference at the level of p<0.01 and p<0.001, respectively compared to silica crystal alone.
The levels of IL-6 in the culture medium were measured by ELISA. * and *** indicates a significant difference at the level of p<0.05 and p<0.001, respectively compared to silica crystal alone.
(§2) The mouse macrophages cell line J774A.1 and human monocytic leukemia cell line THP-1 was obtained from the American Type Culture Collection (Rockville, Md.) and cultured in RPMI 1640 medium supplemented with 10% heat-inactivated fetal bovine serum (FBS) and 2 mM L-glutamine (all from Life Technologies, Carlsbad, Calif.) at 37° C. in a 5% CO2 incubator. To induce monocyte-to-macrophage differentiation, THP-1 cells were cultured for 48 h in RPMI-1640 medium supplemented with 100 nM phorbol 12-myristate 13-acetate (Sigma-Aldrich).
In FIG. 3-5, THP-1 macrophages (1×10^5 cells/500 μl medium/well) were incubated for 30 min with or without Ginsenoside M1, then for 5 h with or without 1 μg/ml LPS in the continued presence or absence of Ginsenoside M1, and then for 24 h with or without 200 μg/ml silica crystal (purchased from InvivoGen, San Diego, Calif.). The levels of IL-1β (FIG. 3), TNF-α (FIG. 4) and IL-6 (FIG. 5) in the culture medium were measured by ELISA.
(§3) For ELISA assay, 50 μl of biotinylated antibody reagent and 50 μl of culture medium were added to an anti-IL-1β, TNF-α or IL-6 precoated stripwell plate, and incubated at room temperature for 2 h. […] The washing process was repeated; then 100 μl of a premixed tetramethylbenzidine substrate solution was added to each well and developed at room temperature in the dark for 30 min Following the addition of 100 μl of provided stop solution to each well to stop the reaction, the absorbance of the plate was measured by a microplate reader at a 450 nm wavelength. […]

[3] = system: LPS-primed THP-1 macrophages; test: Silica crystal-induced cytokine production in LPS-primed THP-1 macrophages, Ginsenoside M1 added after LPS priming (ELISA); assay type: cell-based, human; details: THP-1 primed 5 h with 1 μg/ml LPS, then M1 30 min, then 200 μg/ml silica crystal 24 h
Protocol: The levels of IL-1β in the culture medium were measured by ELISA. ** and *** indicates a significant difference at the level of p<0.01 and p<0.001, respectively compared to silica crystal alone.
The levels of TNF-α in the culture medium were measured by ELISA. ** indicates a significant difference at the level of p<0.01 compared to silica crystal alone.
The levels of IL-6 in the culture medium were measured by ELISA. *** indicates a significant difference at the level of p<0.001 compared to silica crystal alone.
as §2
In FIG. 6-8, THP-1 macrophages (1×10^5 cells/500 μl medium/well) were incubated for 5 h with or without 1 μg/ml LPS, then for 30 min with or without Ginsenoside M1 in the continued presence or absence of LPS, and then for 24 h with or without 200 μg/ml silica crystal. The levels of IL-1β (FIG. 6), TNF-α (FIG. 7) and IL-6 (FIG. 8) in the culture medium were measured by ELISA.
as §3

[4] = system: mouse J774A.1 macrophages; test: LPS-induced NLRP3 and proIL-1β expression in J774A.1 macrophages (Western blot); assay type: cell-based; details: M1 30 min, then 1 μg/ml LPS 6 h, FIG. 2
Protocol: The levels of NLRP3 and […] in the cell lysates were measured by Western blot.
In FIG. 2, J774A.1 macrophages (2×10^6 cells/2 ml medium/dish) were incubated for 30 min with or without Ginsenoside M1, then for 6 h with or without 1 μg/ml LPS in the continued presence or absence of Ginsenoside M1. The levels of NLRP3 and proIL-1β in the cell lysates were measured by Western blot. In brief, After treatment, the cells were collected and lysed at 4° C. in lysis buffer (25 mM Tris-HCl, pH 7.5, 100 mM NaCl, 2.5 mM EDTA, 2.5 mM EGTA, 20 mM NaF, 1 mM Na3VO4, 20 mM sodium β-glycerophosphate, 10 mM sodium pyrophosphate, 0.5% Triton X-100) containing protease inhibitor cocktail (Sigma, St. Louis, Mo.), then the whole cell lysate was separated by SDS-PAGE and electrotransferred to a PVDF membrane. The membranes were incubated for 1 h at room temperature in blocking solution (5% nonfat milk in phosphate buffered saline with 0.1% Tween 20), then were incubated for 2 h at room temperature with NLRP3 or proIL-1β antibody in blocking solution. […]
J774A.1 macrophages were incubated for 30 min with or without Ginsenoside M1, then for 6 h with or without 1 μg/ml LPS in the continued presence or absence of Ginsenoside M1. The levels of NLRP3 and proIL-1β in the cell lysates were measured by Western blot.

[5] = system: mouse J774A.1 macrophages; test: Silica crystal-induced IL-1β production in LPS-treated J774A.1 macrophages (ELISA); assay type: cell-based; details: M1 30 min, then 1 μg/ml LPS, then 200 μg/ml silica crystal 24 h, FIG. 1, p<0.001 vs silica crystals alone
Protocol: The levels of IL-1β in the culture medium were measured by ELISA. *** indicates a significant difference at the level of p<0.001 compared to […].
In FIG. 1, J774A.1 macrophages (1×10^5 cells/500 μl medium/well) were incubated for 30 min with or without Ginsenoside M1, then for 2 h with or without 1 μg/ml LPS (from Escherichia coli 0111:B4, purchased from Sigma, St. Louis, Mo.) in the continued presence or absence of Ginsenoside M1, and then for 24 h with or without 200 μg/ml silica crystal (purchased from InvivoGen, San Diego, Calif.). The levels of IL-1β in the culture medium were measured by ELISA.
as §1, with “wavelength. […]” for “wavelength.”

## 20-O-β-D-glucopyranosyl-20(S)-protopanaxadiol [Ginsenoside M1]
[1]; intratracheal 200 μg silica crystals 4 h after dosing, FIG. 9, p<0.001
  silica crystal-induced IL-1β production in the murine BALF: significantly reduced
[1]; intratracheal 200 μg silica crystals 4 h after dosing, FIG. 10, p<0.001
  silica crystal-induced IL-6 production in the murine BALF: significantly reduced
[1]; intratracheal 200 μg silica crystals, hematocytometer, FIG. 12, p<0.01
  silica crystal-induced increase of total cell number in BALF: significantly inhibited
[1]; intratracheal 200 μg silica crystals, protein assay dye, FIG. 11, p<0.001
  silica crystal-induced increase of total protein concentration in BALF: significantly inhibited
[2]; FIG. 3, p<0.01
  IL-1β production: reduced
[2]; FIG. 4, p<0.01 and p<0.001
  TNF-α production: reduced
[2]; FIG. 5, p<0.05 and p<0.001
  IL-6 production: reduced
[3]; FIG. 6, p<0.01 and p<0.001
  IL-1β production: reduced
[3]; FIG. 7, p<0.01
  TNF-α production: reduced
[3]; FIG. 8, p<0.001
  IL-6 production: reduced
[4]
  level of NLRP3 in the cell lysates: reduced
  level of proIL-1β in the cell lysates: reduced
[5]
  IL-1β secretion in the culture medium: reduced
